The text below walks through data of article PMC6973020, “Quinoline‐Conjugated Ruthenacarboranes: Toward Hybrid Drugs with a Dual Mode of Action” (Chemmedchem, 2019).

The subject of one experiment is MCF‐7 cells. In words: DAPI staining, fluorescence microscopy, MCF‐7. Type of experiment: cell-based, human. To be noted: MCF‐7, 20 μM, 72 h. The protocol: Flow cytometry. For gaining better insights into the mechanisms of action of the ruthenium complexes, MCF‐7 and LN229 cells incubated with an IC50 dose of 3 or 4, were analyzed via flow cytometry. Several staining protocols were carried out in parallel, in independent experiments: i) AnnV/PI for the detection of apoptotic cell death, ii) AO for the detection of acidic vacuoles, iii) ApoStat for checking caspase activation, iv) CFSE for detecting interference with cellular proliferation, and v) DAPI for the detection of morphological signs of apoptosis. Untreated cells or cells treated only with BSA (control) were also measured, as reference for BSA‐free and BSA‐containing drug formulations, respectively. […] Channels FL1 (green emission), FL2 (orange emission) and/or FL3 (dark red emission) were used for fluorescence detection, according to the specific staining agent. Sideward Scatter (SSC) for MCF‐7 cells treated with 4 or BSA−4 was also analyzed, with respect to the control, for detection of shifts of cell granularity. […]
FCS, 2 mM L‐glutamine, 0.01% sodium pyruvate and antibiotics, at 37 °C in a humidified atmosphere with 5% CO2. […] Cells were counted and seeded in 96‐well plates and incubated overnight, as described above. […]
Staining Protocols for Flow Cytometric Analysis. […] Finally, cells were washed in PBS, resuspended in PBS (or AnnV‐binding buffer for AnnV/PI), and analysed. […]

A further experiment has as its system LN229 cells. Put plainly: Wound healing assay, LN229. The following applies: LN229, IC50 dose, 72 h. Type of experiment: cell-based, human.
A further experiment has as its system LN229 human glioblastoma. In words: MTT cell viability assay, LN229. Type of experiment: cell-based. The following applies: 72 h. From the text: Thus, care must be taken when comparing their biological activities with those of our previous studies, even with the same cell line, because the covalent vs. non‐covalent combination of drugs might imply different mechanisms of action in the cell.44 Here, we studied the in vitro activity of ruthenacarborane 3, i. e. free acid, and its 8‐hydroxyquinolyl (4) and 4‐{(7‐chloroquinolin‐4‐yl)oxy}butanol‐1‐yl (5) esters, against a panel of cancer cell lines (B16 mouse melanoma, A375 human skin melanoma, MCF‐7 human breast adenocarcinoma, LN229 human glioblastoma, U251 human glioma). Human fibroblast cell line MRC‐5, murine microglial cell line BV‐2 as well as peritoneal exudate cells (Mph), were chosen as models for non‐malignant cells. […] On the other side, we wanted to assess the reproducibility of the viability data, under either controlled (with BSA) or uncontrolled (without BSA) conditions, in two sets of independent assays. […] Cells were exposed to 3–5 for 72 h, after which cell viability was determined via 3‐(4,5‐dimethylthiazol‐2‐yl)‐2,5‐diphenyltetrazolium bromide (MTT) and crystal violet (CV) assays, in parallel (Table 2). Cisplatin was also tested as reference.
Preparation of drug solutions. […] Stock solution of cisplatin was prepared in DMF (10 mM) immediately before use. A stock solution of BSA in PBS was prepared at 1.28 mM concentration, and stored at 4 °C in the dark. […] Alternatively, 3 or 4 (DMSO stock solution) were added to the BSA solution in PBS, always with a 10 : 1 molar ratio of BSA to ruthenacarborane. The BSA−ruthenacarborane solutions were incubated 0.5–1 h at room temperature, then diluted with cell culture medium to the desired final concentrations. Final concentrations of 3 and 4 were the same as for the BSA‐free formulation. Final DMSO was 0.02–0.5 vol %.
Colorimetric assays for cellular viability. […] For counting the number of attached (viable) cells, cells were fixed with 4 % (w/v) paraformaldehyde for 10 min at room temperature, and subsequently stained for 15 min with […] crystal violet (CV) solution. Cells were then washed with tap water, dried in air, and the CV dye was dissolved in 33 % (w/v) acetic acid solution. For the detection of mitochondrial respiration, cells were cultivated in MTT staining solution (0.5 mg mL^−1) for approximately 1 h. The dye was then discarded, and the formed formazan (purple) was dissolved in DMSO. The absorbance was measured with an automated microplate reader at λmax 540 nm, with the reference λmax 670 nm. Untreated cells or cells treated only with BSA (control) were also measured, as reference for BSA‐free and BSA‐containing drug formulations, respectively. […] Cell viability is expressed as percentage (%) relative to control (untreated cultures).58 Experiments were run in three independent replicates. […]

Turning to “closo‐ [Compound 3, closo‐ [3‐(η^6‐p‐Cymene)‐1‐(CH2COOH)‐3,1,2‐RuC2B9H10]]”, in the experiment with MCF‐7 cells, the “morphological signs of apoptosis (DAPI)” value was “sparse morphological signs of apoptosis”. In addition, the “cell motility (wound healing assay, in words)” value in the experiment with LN229 cells is listed as “inhibited motility”. The concentration for half-maximal inhibition (IC50) (usually the concentration needed to halve the response being measured) in the experiment on LN229 human glioblastoma came out at 80.1 ± 4 µM.

With “closo ‐[3‐(η^6‐p‐Cymene)‐1‐(quinolin‐8‐yl‐acetate)‐3,1,2‐RuC2B9H10] [Compound 4]”, the “morphological signs of apoptosis (DAPI)” value in the experiment on MCF‐7 cells was “sparse morphological signs of apoptosis”. The “cell motility (wound healing assay, in words)” value in the experiment on LN229 cells is “inhibited motility”. Moreover, the IC50 in the experiment on LN229 human glioblastoma was 42.4 ± 3.9 µM.
